Measured values: patent US5578592A, “Cephalosporin derivatives” (Pfizer Inc., priority 1992, dated 1996)

Key:
Format in all cases: cell-based
S. epidermis PHLN20 = test: In vitro antibacterial activity (MIC), S. epidermis PHLN20
S. aureus Oxford = test: In vitro antibacterial activity (MIC), S. aureus Oxford; settings: Staphylococcus aureus
E. Coli 10418 = test: In vitro antibacterial activity (MIC), E. Coli 10418; settings: Escherichia coli
H. Influenzae Q1 = test: In vitro antibacterial activity (MIC), H. Influenzae Q1; settings: Haemophilus influenzae
S. aureus Russell = test: In vitro antibacterial activity (MIC), S. aureus Russell; settings: Staphylococcus aureus
H. influenzae W/M 493 = test: In vitro antibacterial activity (MIC), H. influenzae W/M 493; settings: Haemophilus influenzae

- MIC (S. epidermis PHLN20): 0.25 µg/mL
- MIC (S. aureus Oxford): 0.5 µg/mL
- MIC (E. Coli 10418): 0.12 µg/mL
- MIC (H. Influenzae Q1): < 0.06 µg/mL
- MIC (S. aureus Russell): 1 µg/mL
- MIC (H. influenzae W/M 493): 0.5 µg/mL
Compound: CO/N=C(\C(=O)N[C@@H]1C(=O)N2C(C(=O)O)=C3[C@H]4Oc5ccccc5[C@H]4[C@@H]3S[C@H]12)c1csc(N)n1 [Example 14, Sodium (4S,8R,9S,11R,12R)-12-[2-(2-aminothiazol-4-yl)-2-(Z)-methoxy-iminoacetamido]-13-oxo-5-oxa-10-thia-1-aza-6,7-benzotetracyclo[9.2.0.0^3,9.0^4,8]tridec-2-ene-carboxylate]
